Data reported in patent publication US7399492B2, “Composition and method for issue repair and regeneration” (priority 2001, dated 2008).

Tests used:
Kunming mice [1] = details: positive control 35 mg/kg
Kunming mice [2] = details: positive control 35 mg/kg; remark: listed apart in the source
Salmonella strain TA100 = experiment: Ames test, strain TA100; format: cell-based; details: Positive Control/plate, 2 ul
[3] = system: Salmonella strain TA102 base substitutive mutation strain; format: cell-based; details: Positive Control/plate
Experimental: To test mutagenicity of the content of GI Capsules, Ames tests were conducted on four Salmonella strains: TA97a, TA98 frameshift mutation strain, TA100, and TA102 base substitutive mutation strain. Ames (1983) Mutation Research 113:173-215. Five genetic characteristics of these four strains were determined to meet the requirement for the testing. The content of GI Capsules at five concentrations was tested: 5 mg/plate, 2.5 mg/plate, 1.0 mg/plate, 0.5 mg/plate, 0.1 mg/plate. The negative control was PBS. […]

[4] = system: Kunming mice constipated by diphenoxylate; experiment: Laxative effects on mouse models for constipation (diphenoxylate); format: in vivo; details: Positive control group, diphenoxylate 50 mg/kg alone
Experimental: (§1) The content of GI Capsules was tested for laxative effects, i.e., the effects of the loosening the bowels to relieve constipation, on mouse models for constipation. Healthy Kunming mice were divided randomly into 5 groups, 20 in each group. […] The negative control group consists of 20 mice fed normally and the positive control group 20 mice fed with diphenoxylate at 50 mg/kg BW.
(§2) The test samples were diluted with distilled water into required concentrations and volume of 0.1 ml/10 g BW, and continuously administrated to the mice by oral gavage once a day for 14 days. The mice were fed with normal food during this period. On the last day of administration, mice were kept on fast for 24 hours overnight, but water was given. Then the content of GI Capsules were administered to mice in the three dosage groups by oral gavage. Twenty minutes later, diphenoxylate (50 mg/kg) was administered to all animals except those in the negative control group at the dosage of 0.1 ml/10 g. Ten minutes later, carbon ink (5% carbo activatus, 10% Arabic gum) was administered to all animals by oral gavage at the dosage of […]. All animals in each group were divided into two subgroups, 10 mice in each subgroup. One subgroup in each group was kept for observation of their dejection for 24 hours. The other was killed twenty minutes later and cut open the belly to measure the length of small intestine and the distance between pylorus and the front line of carbon ink to calculate carbon moving rates.

[5] = Body weight of mice in the laxative study; format: in vivo, mouse; details: Positive control group (diphenoxylate 50 mg/kg BW)
Experimental: as §1, §2

With O=P1(N(CCCl)CCCl)NCCCO1 (stereo not shown) [CP, cyclophosphamide] the “Micronucleus rate, Female” value (Kunming mice [1]; female mice) was 21.2 ± 2.28 ‰, the “Micronucleus PCE, Female” value (Kunming mice [1]; female mice, of 5000 PCE) was 106 and the “Micronucleus rate, Male” value (Kunming mice [1]; male mice) was 20.6 ± 2.41 ‰. The “Micronucleus PCE, Male” value (Kunming mice [1]; male mice, of 5000 PCE) was 103, the Aberration rate (Kunming mice [2]) was 20.80 ± 0.98% and the Aberrant sperm (Kunming mice [2]; 10 mice, of 10000 sperm) was 2080.
For COS(C)(=O)=O [MMS], the “Ames mutation data TA100 −S9” value (Salmonella strain TA100) was 1460.00 and the “Ames mutation data TA102 −S9” value ([3]; 2 ul) was 2960.00.
With Nc1ccc2cc3ccccc3cc2c1 [2-AA] the “Ames mutation data TA102 +S9” value ([3]; 12 ug) was 1411.00.
With CCOC(=O)C1(c2ccccc2)CCN(CCC(C#N)(c2ccccc2)c2ccccc2)CC1 [diphenoxylate] the Carbon moving rate [4] was 33.2 ± 10.5%, the First dejection time [4] was 230.6 ± 56.0 min and the “Total amounts of dejection” value ([4]; 24 hours observation) was 1.0 ± 0.2 g. The “Weight Dung grain” value ([4]; 24 hours observation) was 16.4 ± 3.6 grain, the “Weight 0th day” value [5] was 19.5 ± 1.2 and the “Weight 7th day” value [5] was 25.3 ± 0.9. For the same molecule, the “Weight 14th day” value [5] was 29.2 ± 1.4.
